Here are results for 2 compounds from patent US20080063720A1, “Delivery System” (priority 2004, published 2008).

For assay [1], the system named is THP-1 differentiated macrophages. Nature of the assay: Brefeldin A effect on intranuclear accumulation of quantum dots. Type of assay: cell-based, human. The conditions noted are these: Brefeldin A 20 μg/ml for 30 min, washed out before particles were added. Here is the method: In the studies referred to in FIGS. 1-10, Human THP-1 monocytes, the transformed epithelial cell lines HT-29, HCT-116 and T cell lymphoma cell line HUT-78 were obtained from the European Collection of Animal Cell Cultures (ECACC, Salisbury, UK). Cells were grown in RPMI 1640 medium supplemented with 10% heat-inactivated fetal bovine serum (FBS), 2 mM L-glutamine/L, 100 μg penicillin/ml and […], and incubated at 37° C. in 5% CO2. To induce monocyte to macrophage differentiation, THP-1 cells were cultured in the presence of 100 ng/ml PMA for 72 h.
Prior to incubation with CdTe particles THP-1 differentiated macrophages were incubated with the Golgi complex disrupter Brefeldin A for 30 min at 20 μg/ml. Following a wash out, green 2.2 nm size CdTe particles were added to the cells.

Assay [2] concerns human primary macrophage cells. Nature of the assay: Thapsigargin effect on intranuclear accumulation of quantum dots. Type of assay: cell-based. The conditions noted are these: thapsigargin 100 mM for 30 min, washed out before incubation with particles. Here is the method:
Nuclear import inhibitor thapsigargin ([…]) was added to the cells for 30 min and subsequently washed out with pre-warmed culture medium prior to incubation with 2.2 nm size (green emitting) CdTe particles.

Regarding `C[C@H]1CCC/C=C/[C@@H]2C[C@H](O)C[C@H]2[C@H](O)/C=C/C(=O)O1` [brefeldin A, Brefeldin A], the “effect on distribution and intranuclear accumulation of 2.2 nm green CdTe particles” value in assay [1] was “dispersion of quantum dots and partial block of intranuclear accumulation”.

As to `C/C=C(/C)C(=O)O[C@H]1C(C)=C2[C@H]([C@@H]1OC(=O)CCCCCCC)[C@@](C)(OC(C)=O)C[C@H](OC(=O)CCC)[C@@]1(O)[C@H]2OC(=O)[C@@]1(C)O` [thapsigargin], the “effect on intranuclear accumulation of 2.2 nm green CdTe particles” value in assay [2] was “blockade of intranuclear accumulation”.
